Data from US6211244A, “Calcium receptor-active compounds” (priority 1995, dated 2001).
Where “and” joins values, the source holds several entries; their conditions need not be identical. Identical values can stand only once. Counter-ions that a name gives are not always drawn. Like-named read-outs stand apart in the source and are kept apart here.

Target: T1, human calcium receptor (Homo sapiens, UniProt P41180, R990G)
T1 construct: expressed in transfected cells; host or cells: HEK 293
T1 sequence (P41180 20-1078 R990G): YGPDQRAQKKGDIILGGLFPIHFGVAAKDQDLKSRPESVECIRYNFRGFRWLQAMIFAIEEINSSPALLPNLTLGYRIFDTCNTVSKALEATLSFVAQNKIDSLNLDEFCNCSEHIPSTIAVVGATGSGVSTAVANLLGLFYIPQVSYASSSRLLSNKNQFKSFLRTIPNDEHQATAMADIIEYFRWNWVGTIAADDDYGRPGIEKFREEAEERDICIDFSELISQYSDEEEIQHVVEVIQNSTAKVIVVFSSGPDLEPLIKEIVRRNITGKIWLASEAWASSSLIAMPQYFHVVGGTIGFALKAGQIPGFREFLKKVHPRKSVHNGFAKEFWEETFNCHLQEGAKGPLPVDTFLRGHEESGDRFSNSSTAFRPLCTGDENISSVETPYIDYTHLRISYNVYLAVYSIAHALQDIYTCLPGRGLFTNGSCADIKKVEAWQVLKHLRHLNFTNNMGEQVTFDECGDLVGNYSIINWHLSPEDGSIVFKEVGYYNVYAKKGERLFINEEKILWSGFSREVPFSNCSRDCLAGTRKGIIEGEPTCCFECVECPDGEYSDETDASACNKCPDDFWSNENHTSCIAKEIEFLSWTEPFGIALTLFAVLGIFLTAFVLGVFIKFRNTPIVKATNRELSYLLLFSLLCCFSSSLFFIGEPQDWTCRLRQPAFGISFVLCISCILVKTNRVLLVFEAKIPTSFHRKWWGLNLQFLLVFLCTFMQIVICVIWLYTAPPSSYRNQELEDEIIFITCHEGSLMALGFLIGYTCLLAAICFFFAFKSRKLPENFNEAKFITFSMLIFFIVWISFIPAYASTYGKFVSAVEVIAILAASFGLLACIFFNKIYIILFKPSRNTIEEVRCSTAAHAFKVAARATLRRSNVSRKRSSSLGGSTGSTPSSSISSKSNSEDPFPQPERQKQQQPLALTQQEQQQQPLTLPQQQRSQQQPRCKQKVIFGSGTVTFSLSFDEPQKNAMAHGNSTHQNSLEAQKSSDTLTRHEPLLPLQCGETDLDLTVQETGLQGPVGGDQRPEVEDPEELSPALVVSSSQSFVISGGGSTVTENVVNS
Test: increases in [Ca^2+ ]i in HEK-293 cells expressing the human calcium receptor (fura-2 loaded HEK 293/pHuPCaR4.0 cells), % activity
Assay type: cell-based

| % activity | SMILES | % activity (33 ng/mL) | % activity (330 ng/mL) | % activity (3300 ng/mL) [%] |
| --- | --- | --- | --- | --- |
| 45 | CC(NC1CCc2ccccc2C1)c1ccccc1 (mixture of isomers) [Compound 4B] | 8% | – | – |
| – | CC(C=Cc1ccccc1)NC(C)c1ccccc1 (mixture of isomers) [Compound 5D] | 18% | 62% | – |
| – | CC(NC1CCc2ccccc21)c1cccc2ccccc12 (mixture of isomers) [Compound 9A] | 56% | 82% | – |
| – | COc1cccc(C(C)NC(C)c2ccc(C(C)(C)C)cc2)c1 (mixture of isomers) [Compound 13G] | 82% | 128% | 111 |
| – | CC(NC(C)c1ccc(C(C)(C)C)cc1)c1ccccc1 (mixture of isomers) [Compound 13H] | 36% | 48% | 88 |
| – | CC(NC(C)c1ccc2ccccc2c1)c1ccc(C(C)(C)C)cc1 (mixture of isomers) [Compound 13I] | 3% | 52% | 85 |
| – | CC(C)Cc1ccc(C(C)CNC(C)c2cccc3ccccc23)cc1 (mixture of isomers) [Compound 14A] | 10% | 78% | 98 |
| – | CC(O)c1ccc(CNC(C)c2cccc3ccccc23)cc1 (mixture of isomers) [Compound 17B] | 61% | 92% | – |
| – | CCC(NC(C)c1cccc2ccccc12)c1ccc(OC)cc1 (mixture of isomers) [Compound 17G] | 119% | 128% | 125 |
| – | Cc1cc(C(C)NC(C)c2cccc3ccccc23)ccc1OCc1ccccc1 (mixture of isomers) [Compound 25X] | 72% | 94% | 96 |
| – | COc1ccc(C(NC(C)c2cccc3ccccc23)C2CC2)cc1 (single isomer, unassigned) [Compound 17I] | 76% | 97% | 118 |
| – | COc1cccc(C(C)NCCC(C)c2ccc(Cl)cc2)c1 (centres unmarked) [5B/5C, N-[3-methyl-3-(4-chlorophenyl)propyl]-1-(3-methoxyphenyl)ethylamine] | 20% | 65% | – |
| – | CC(NC(C)c1cc2ccccc2c2ccccc12)c1cccc2ccccc12 (centres unmarked) [10S/10T] | 65% | 86% | – |
| – | CC(NCC1CCc2ccccc2C1)c1cccc2ccccc12 (centres unmarked) [10W/10X] | 61% and 53% | 98% and 81% | – |
| – | COc1cccc([C@@H](C)NC(C)CCc2ccccc2Cl)c1 (some centres unmarked) [21C = 4U] | 76% | 114% | 134 |
| – | CC(NCCCc1ccccc1)c1ccccc1 (centres unmarked) [Compound 1D] | – | 53% | – |
| – | CC(NCCCC1CCCCC1)c1ccccc1 (centres unmarked) [Compound 1T] | – | 76% | – |
| – | CC(NCCCc1ccccc1)c1c[nH]c2ccccc12 (centres unmarked) [Compound 2Q] | 4% | 56% | – |
| – | COc1ccccc1C(C)NCCC(c1ccccc1)c1ccccc1 (centres unmarked) [Compound 2S] | 29% | 67% | – |
| – | CC(NCCC(c1ccccc1)c1ccccc1)c1cccc(Cl)c1 (centres unmarked) [Compound 2Y] | 10% | 59% | – |
| – | CC(NCCC(c1ccccc1)c1ccccc1)c1ccccc1F (centres unmarked) [Compound 3A] | 7% | 41% | – |
| 45 | CC(NCCC(c1ccccc1)c1ccccc1)c1ccccc1C(F)(F)F (centres unmarked) [Compound 3D] | 4% | – | – |
| – | CC(NCCCc1ccccc1)c1ccccc1 (centres unmarked) [Compound 3H] | – | 84% | – |
| – | Cc1ccccc1C(C)NCCC(c1ccccc1)c1ccccc1 (centres unmarked) [Compound 3L] | 28% | 81% | – |
| – | Cc1cccc(C(C)NCCC(c2ccccc2)c2ccccc2)c1 (centres unmarked) [Compound 3M] | 19% | 64% | – |
| 45 | CC(NCCC(c1ccccc1)c1ccccc1)c1ccc(O)cc1 (centres unmarked) [Compound 3R] | 2% | – | – |
| – | CC(NCCC(c1ccccc1)c1ccccc1)c1cccc2ccccc12 (centres unmarked) [Compound 3U, N-(3,3-diphenylpropyl)-(1-naphthyl)ethylamine] | 57% | 89% | – |

| % activity | SMILES | % activity (33 ng/mL) | % activity (330 ng/mL) | % activity (3300 ng/mL) [%] |
| --- | --- | --- | --- | --- |
| – | COc1cccc(C(C)NCc2cccc3ccccc23)c1 (centres unmarked) [Compound 3V] | 14% | 56% | – |
| – | CC(N[C@H](C)c1ccccc1)c1cccc2ccccc12 (some centres unmarked) [Compound 4G, N-[1-(1-naphthyl)ethyl)-1-phenylethylamine] | 46% | 83% | – |
| – | CC(NCc1cccc2ccccc12)c1ccccc1 (centres unmarked) [Compound 4I] | 9% | 40% | – |
| – | CC(NCc1ccc2ccccc2c1)c1ccccc1 (centres unmarked) [Compound 4J] | 8% | 47% | – |
| – | COc1cccc(C(C)NCCCc2ccccc2F)c1 (centres unmarked) [Compound 4M] | 34% | 68% | – |
| – | COc1cccc([C@@H](C)NCCCc2ccc(F)cc2)c1 [Compound 4P] | – | 81% and 61% | – |
| – | COc1cccc(C(C)NCCCc2ccccc2C(F)(F)F)c1 (centres unmarked) [Compound 4V] | 59% | 93% | – |
| – | CC(COc1ccccc1)NC(C)c1ccccc1 (centres unmarked) [Compound 5G] | 16% | 58% | – |
| – | C[C@@H](NCC=C(c1ccccc1)c1ccccc1)c1ccccc1 [Compound 5L] | 16% | 60% | – |
| – | CC(NCC=Cc1ccccc1[N+](=O)[O-])c1ccccc1 (centres unmarked) [Compound 5M] | 21% | 73% | – |
| – | CCOc1cccc([C@@H](C)NCCCc2ccccc2)c1 [Compound 6R, (R)-N-(3-phenylpropyl)-1-(3-ethoxyphenyl)ethylamine] | 52% | 94% | – |
| – | CCOc1cccc([C@@H](C)NCCCc2ccccc2Cl)c1 [Compound 6T, (R)-N-[3-(2-chlorophenyl)propyl]-1-(3-ethoxyphenyl)ethylamine] | 78% | 129% | 123 |
| – | COc1cccc([C@@H](C)NCCCc2cccc(Cl)c2)c1 [Compound 6X] | 52% | 84% | – |
| – | C[C@@H](NCCCc1ccccc1Cl)c1cccc(OC(F)(F)F)c1 [Compound 7U] | – | 49% | – |
| – | CC(=O)c1cccc(C(C)NCCCc2ccccc2)c1 (centres unmarked) [Compound 7W] | – | 76% | – |
| – | COc1cccc(C(C)NCCCC2CCCCC2)c1 (centres unmarked) [Compound 7X] | – | 85% | – |
| – | COc1cc(OC)cc(C(C)NCCCc2ccccc2)c1 (centres unmarked) [Compound 8A] | – | 54% | – |
| – | CSc1cccc(C(C)NCCCc2ccccc2)c1 (centres unmarked) [Compound 8J, N-(3-phenylpropyl)-1-(3-thiomethylphenyl)ethylamine hydrochloride] | 77% | 104% | – |
| – | CSc1cccc(C(C)NCCCc2ccccc2Cl)c1 (centres unmarked) [Compound 8K] | 81% | 98% | – |
| – | COc1cccc(C(C)NCCCc2cc(OC)c(OC)c(OC)c2)c1 (centres unmarked) [Compound 8S] | 42% | 73% | – |
| – | COc1cccc(C(C)NCC=Cc2ccccc2OC)c1 (centres unmarked) [Compound 8T] | 55% | 85% | – |
| – | COc1cccc([C@@H](C)NCCCc2ccccc2OC)c1 [Compound 8U, N-3-(2-methoxyphenyl)-1-propyl-(R)-3-methoxy-α-methylbenzylamine hydrochloride] | 82% | 129% | 123 |
| – | COc1cccc([C@@H](C)NCCCc2ccc(C)cc2)c1 [Compound 8X] | 40% | 75% | – |
| – | CC(N[C@H](C)c1cccc2ccccc12)c1ccc2ccccc2c1 (some centres unmarked) [Compound 8Z] | 97% | 101% | – |
| – | C[C@@H](N[C@H](C)c1cccc2ccccc12)c1ccc2ccccc2c1.Cl [Compound 9R, (R)-N-(1-(2-naphthyl)ethyl)-(R)-1-(1-naphthyl)ethylamine hydrochloride] | 101% | 108% | – |
| – | CC(NCc1ccc(-c2ccccc2)cc1)c1cccc2ccccc12 (centres unmarked) [Compound 10N] | 77% | 97% | 106 |

| SMILES | % activity | % activity (33 ng/mL) | % activity (330 ng/mL) | % activity (3300 ng/mL) [%] |
| --- | --- | --- | --- | --- |
| CC(NCCC(c1ccccc1)c1ccccc1)c1ccccc1Cl (centres unmarked) [Compound 2X] | 15 | – | 66% | – |
| CC(NCCC(c1ccccc1)c1ccccc1)c1cccc(F)c1 (centres unmarked) [Compound 3B] | 15 | – | 52% | – |
